According to patent publication US9000031B2, “Thioxanthone-based autophagy inhibitor therapies to treat cancer” (Spectrum Pharmaceuticals, Inc., priority 2010, dated 2015):

Experiments:
LC3-II, SQSTM1/p62 = test: LC3-II formation and SQSTM1/p62 accumulation with Bafilomycin A1 (FIG. 1F); type: cell-based
breast cancer cell lines [1] = test: Apoptosis by PI staining and FACS analysis of sub-G0/G1 DNA content; type: cell-based
Method: (§1) Cells from the breast cancer cell lines MDA-MB-231, BT-474, SKBR-3, and BT-20 were seeded into 96-well microculture plates at 10,000 cells per well and allowed to attach for 24 hours. Cells were then treated with 10 μM Lucanthone for 72 hours (48 hours for apoptosis assay). For immunoblotting, cells were harvested after treatment and cathepsin D levels were determined as described above. Pro-apoptotic effects following in vitro drug exposure were quantified by propidium iodide (PI) staining and fluorescence-activated cell sorting (FACS) analysis of sub-G0/G1 DNA content. Data is representative of three independent experiments.
Cells from the breast cancer cell lines MDA-MB-231, BT-474, SKBR-3, and BT-20 were seeded into 96-well microculture plates at 10,000 cells per well and allowed to attach for 24 hours. For immunoblotting, cells were then treated with 10 μM Lucanthone, 2.5 μM Vorinostat, or the combination for 72 hours, harvested, and cathepsin D levels were determined as described above. For the MTT cell viability assay, the cells were then treated with 10 μM Lucanthone, 2.5 μM Vorinostat, or the combination for 72 hours. After treatment, 3-(4,5-dimethylthiazol-2-yl)-2,5, diphenyltetrazolium bromide (MTT) was added after treatment and cell viability was quantified using a BioTek (Winooski, Vt.) microplate reader. […] Pro-apoptotic effects following in vitro drug exposure were quantified by propidium iodide (PI) staining and fluorescence-activated cell sorting (FACS) analysis of sub-G0/G1 DNA content. […]
Cells from the breast cancer cell lines MDA-MB-231 and BT-20 were seeded into 96-well microculture plates at 10,000 cells per well and allowed to attach for 24 hours. […] After treatment, 3-(4,5-dimethylthiazol-2-yl)-2,5, diphenyltetrazolium bromide (MTT) was added after treatment and cell viability was quantified using a BioTek (Winooski, Vt.) microplate reader. […] Pro-apoptotic effects following in vitro drug exposure were quantified by propidium iodide (PI) staining and fluorescence-activated cell sorting (FACS) analysis of sub-G0/G1 DNA content. […]

[2] = tested on: MDA-MB-231 breast cancer cell line; test: Lysosomal membrane permeabilization by loss of acridine orange fluorescence; type: cell-based; conditions: MDA-MB-231 cells, 10 μM Lucanthone or 50 μM Chloroquine, 48 hours
Method: The appearance of LMP was monitored by loss of acridine orange fluorescence. Acidic lysosomes were visualized by acridine orange staining. […] Cells were washed with PBS and images were captured using an Olympus fluorescent microscope. Based on the acidity, lysosomes appeared as orange fluorescent cytoplasmic vesicles. Quantification of 5 random fields of acridine orange intensity was measured by immunofluorescence and image acquisition were performed using Image-Pro Plus software Version 6.2.1.

breast cancer cell lines [3] = test: Cell viability by MTT assay in breast cancer cell lines; type: cell-based; conditions: for IC50: 72 h, read-out: mean IC50, breast cancer cell viability
Excerpt: (§2) Data is representative of three independent experiments.
as §2, §2

[4] = tested on: MDA-MB-231 breast cancer cell line; test: Vacuolization by Giemsa staining and transmission electron microscopy; type: cell-based; conditions: MDA-MB-231 cells, 48 hours; for accumulation of electron dense particles: 10 μM Lucanthone or 50 μM Chloroquine, transmission electron microscopy
Method: Increased vacuolization was visualized by Giemsa staining and transition electron microscopy. […] After drug treatment, cells were washed with PBS and fixed in methanol for 5 minutes. Cells were then incubated for 1 hour in Giemsa stain diluted 1:20 with deionized water. Cells were rinsed with water and imaged using an Olympus fluorescent microscope. Image-Pro Plus software Version 6.2.1 was used for image acquisition. Transmission electron microscopy of cells was performed using routine procedures. Sections were cut in an LKB Ultracut microtome (Leica, Deerfield, Ill.), stained with uranyl acetate and lead citrate, and examined in a JEM 1230 transmission electron microscope (JEOL, USA, Inc., Peabody, Mass.). Images were captured using the AMT Imaging System (Advanced Microscopy Techniques Corp, Danvers, Mass.).

SQSTMI/p62 = SQSTMI/p62 levels and aggregation by immunoblotting and immunocytochemistry; type: cell-based; conditions: MDA-MB-231 cells
Method: This protein is degraded by autophagy, localized to cellular inclusion bodies, and has been proposed to play a role in facilitating protein aggregate clearance by autophagy. As such, a disruption of this process would result in the accumulation of SQSTMI/p62.
(§3) Levels and aggregation of SQSTMI/p62 were determined by immunoblotting and immunocytochemistry, respectively. […] Cells were harvested and were then lysed using routine procedures. Approximately 50 μg of total cellular protein from each sample were subjected to SDS-PAGE, proteins were transferred to nitrocellulose membranes, and the membranes were blocked with 5% nonfat milk in a Tris-buffered saline solution containing 0.1% TWEEN-20 for 1 hour. The blots were then probed overnight at 4° C. with primary antibodies, washed, and probed with species-specific secondary antibodies coupled to horseradish peroxidase. Immunoreactive material was detected by enhanced chemiluminescence (West Pico, Pierce, Inc., Rockville, Ill.).

[5] = tested on: HCT116 colorectal cancer cell lines; test: Cell viability in isogenic HCT116 p53 cell lines; type: cell-based; conditions: HCT116 p53+1^+ and p53−1^− cell lines
Excerpt: (§4) Loss of function of p53 is a frequent event in human cancer that is associated with tumorigenesis and drug resistance. […] To investigated the role of p53 in Lucanthone-mediated cell death, […]

cathepsin D [6] = test: Cathepsin D accumulation in isogenic HCT116 p53 cell lines; type: cell-based; conditions: HCT116 p53+1^+ and p53−1^− cell lines
Excerpt: as §4

[7] = tested on: MDA-MB-231 breast cancer cell line; test: Lucanthone-induced apoptosis after cathepsin D siRNA knockdown; type: cell-based; conditions: MDA-MB-231 cells, 100 nM cathepsin D siRNA vs non-target siRNA, 10 μM Lucanthone, 48 hours
Method: To further establish the mechanistic role of cathepsin D in Lucanthone-induced apoptosis, siRNA was used to knockdown its expression (FIG. 4C). Preparation of siRNAs Cahepsin D and non-target SMARTpool siRNA were obtained from Dharmacon (Lafayette, Colo.). Cells from a MDA-MB-231 breast cancer cell line were transfected with 100 nM of either non-target or cathepsin D siRNA using Oligofectamine (Invitrogen, Carlsbad, Calif.) according to the manufacturers protocol. Transfected cells were incubated at 37° C. for 24 hours and then treated with 10 μM Lucanthone for 48 hours. Efficiency of RNAi was measured at 48 hours by immunoblotting using an α-cathepsin D antibody. Apoptosis was determined by PI staining and flow cytometry.

cathepsin D [8] = test: Cathepsin D protein levels and aggregation by immunocytochemistry; type: cell-based; conditions: immunocytochemistry (FIG. 3C)
cathepsin D [9] = test: Cathepsin D expression by immunoblotting in breast cancer cell lines; type: cell-based; conditions: MDA-MB-231, BT-474, SKBR-3, BT-20 cells, 10 μM Lucanthone, 72 hours
Method: as §3
as §1, with “experiments. […]” for “experiments.”

[10] = tested on: MDA-MB-231 and BT-20 breast cancer cell lines; test: Affymetrix expression arrays; type: cell-based, human; conditions: MDA-MB-231 and BT-20 cells, 10 μM Lucanthone, 48 hours
Method: To further characterize the effects of Lucanthone on breast cancer cells, expression profiling was performed on breast cancer cell lines. Cells from a MDA-MB-231 and a BT-20 breast cancer cell line were treated with 10 μM Lucanthone for 48 hours. Total RNA was isolated using the RNeasy Plus Mini Kit (Qiagen, Germantown, Md.) and treated with TURBO DNA-Free™ Kit (Applied Biosystems, Foster City, Calif.). 300 ng of total RNA per sample was amplified and hybridized to […]® Human Gene 1.0 ST arrays (Affymetrix, Inc., Santa Clara, Calif.) according to the manufacturer's instructions. These arrays assay for the expression of about 28,869 well-annotated genes with 764,885 distinct probes. Affymetrix CEL files were imported into PARTEK® Genomics Suite™ 6.4 (Partek Inc., St. Louis, Mo.) using the default Partek normalization parameters and the robust multi-array average (RMA) analysis adjusted for probe sequence and GC content (GC-RMA). Data normalization was performed across all arrays using quantile normalization.

cathepsin D [11] = test: Quantitative real-time PCR analysis of cathepsin D; type: cell-based; conditions: MDA-MB-231 and BT-20 cells, 10 μM Lucanthone, 48 hours, standardized to GAPDH
Method: The lysosomal protease cathepsin D is a key mediator of apoptosis and its release into the cytosol has been reported to promote cell death. Considering this, we further evaluated the role of cathepsin D during Lucanthone-mediated cell death using quantitative real-time PCR (qRT-PCR). To perform qRT-PCR, cells from a MDA-MB-231 or a BT-20 cell lines were treated with 10 μM Lucanthone for 48 hours and then harvested for analysis. Total RNA was isolated using the RNeasy Plus Mini Kit (Qiagen, Germantown, Md.) and treated with TURBO DNAfree™ Kit (Applied Biosystems, Foster City, Calif.). First-strand cDNA synthesis was performed from 1 μg RNA in a 20 μL reaction mixture using the high-capacity cDNA Reverse Transcription Kit (Applied Biosystems, Foster City, Calif.). Cathepsin D and GAPDH transcripts were amplified using commercially available TaqMan@Gene expression assays (Applied Biosystems, Foster City, Calif.). Levels of mRNAs were standardized to the expression of GAPDH and relative gene expression was calculated with the 2^−ΔCt method.

LC3-II = test: Accumulation of LC3-II by immunocytochemistry; type: cell-based; conditions: MDA-MB-231 cells, 10 μM Lucanthone, 48 hours
Method: Accumulation of LC3-II was visualized by immunocytochemistry. Cells from a MDA-MB-231 breast cancer cell line were plated on chamber slides and allowed to attach overnight. […] Following drug treatment, cells were fixed with 4% paraformaldehyde, permeabilized using 0.2% TRITON-X-100, and incubated overnight with indicated primary antibodies. Alexa Fluor 488 conjugated fluorescent secondary antibodies were used to visualize protein localization. Images were captured using an Olympus fluorescent microscope (Center Valley, P A) with a DP71 camera and a 60× objective. Image-Pro Plus software Version 6.2.1 (MediaCybernetics, Bethesda, Md.) was used for image acquisition.

[12] = breast cancer cell lines, FIG. 1G

| Structure (SMILES) | LC3-II formation (LC3-II, SQSTM1/p62) | SQSTM1/p62 accumulation (LC3-II, SQSTM1/p62) | apoptosis (breast cancer cell lines [1]; [12]) | acridine orange staining intensity of lysosomes (lysosomal acidity) [2] | IC50 (breast cancer cell lines [3]) | accumulation of electron dense particles [4] | SQSTMI/p62 levels (SQSTMI/p62; 10 μM Lucanthone, 48 hours, immunoblotting) | SQSTMI/p62 aggregation (SQSTMI/p62; immunocytochemistry) | cell viability [5] | cathepsin D accumulation (cathepsin D [6]) | sensitivity to Lucanthone-mediated apoptosis of cells with reduced cathepsin D levels [7] | cathepsin D protein levels and cytosolic aggregation (cathepsin D [8]) | cell viability (breast cancer cell lines [3]; panel of seven breast cancer cell lines, varying concentrations, 72 hours, MTT) | cytoplasmic vacuolization ([4]; 10 μM Lucanthone, Giemsa staining) | cathepsin D levels (cathepsin D [9]) | apoptosis (breast cancer cell lines [1]; MDA-MB-231, BT-474, SKBR-3, BT-20 cells, 10 μM Lucanthone, 48 hours, PI-FACS) | genes induced: cathepsin D (CTSD), MMPI, CYPIAI (upregulated by at least 4-fold) [10] | cathepsin D mRNA levels (qRT-PCR) (cathepsin D [11]) | lipid modification of LC3 into LC3-II (punctate localization to autophagosomes) (LC3-II) |
| --- | --- | --- | --- | --- | --- | --- | --- | --- | --- | --- | --- | --- | --- | --- | --- | --- | --- | --- | --- |
| CO/C1=C\C(C)=C\[C@@H](C)[C@@H](O)[C@@H](C)C/C(C)=C/C=C/[C@H](OC)[C@@H]([C@@H](C)[C@@H](O)[C@H](C)[C@@]2(O)C[C@@H](O)[C@H](C)[C@@H](C(C)C)O2)OC1=O [Bafilomycin A1] | induce LC3-II formation | SQSTM1/p62 accumulation | induce apoptosis in breast cancer cell lines |  |  |  |  |  |  |  |  |  |  |  |  |  |  |  |  |
| CCN(CC)CCCC(C)Nc1ccnc2cc(Cl)ccc12 (stereo not shown) [Chloroquine] |  |  |  | loss of lysosomal acidity | 66 µM | induced an accumulation of electron dense particles |  |  |  |  |  |  |  |  |  |  |  |  |  |
| CCN(CC)CCNc1ccc(C)c2sc3ccccc3c(=O)c12 [Lucanthone, 1-((2-(Diethylamino)ethyl)amino)-4-methylthioxanthen-9-one] | induce LC3-II formation | SQSTM1/p62 accumulation | induce apoptosis in breast cancer cell lines | decreased the red staining intensity of lysosomes | 7.2 µM | induced an accumulation of electron dense particles | strongly increased | aggregated in response to Lucanthone | reduced viability to a similar extent | induced cathepsin D accumulation equally regardless of p53 status | significantly less sensitive | dramatically increased cathepsin D protein levels and promoted its cytosolic aggregation | reduced cell viability to a similar extent in a panel of seven breast cancer cell lines | induced cytoplasmic vacuolization | strongly increased | induces apoptosis in four different breast cancer cell lines | increased in both cell lines | induced a significant increase in cathepsin D levels in both cell lines | induced lipid modification of LC3-1 into LC3-II |
